Experimental data as given in patent US6375979B2 (Somerset Pharmaceuticals, Inc., priority 1995, dated 2002).
Several values for one entry are separate records, joined by “and”; a condition that tells them apart may be missing. Identical values can stand only once. Like-named read-outs stand apart in the source and are kept apart here.

Columns and labels:
[1] = test system: cultured rat mesencephalic cells; experiment: Medium change (glutamate receptor dependent) model of cell death: [3H]-dopamine uptake; details: for neuron protection by measurement of dopamine uptake (FIG. 15): glutamate receptor dependent model
Method: Preparations are then added to 10 ml Ecoscint (National Diagnostics) and counted in a scintillation spectrometer.
(§2) In these experiments, cells were plated and allowed to stabilize for several days.

[2] = target: T1, dopamine re-uptake system (Rattus norvegicus, UniProt P23977); experiment: Inhibition of dopamine re-uptake in rat neostriatal synaptosome preparation; assay type: biochemical
T1 construct: (synaptosome preparation) was obtained form fresh rat neostriatal brain tissue; from tissue; host or cells: rat neostriatum, synaptosome preparation
Method: An in vitro nerve terminal preparation (synaptosome preparation) was prepared using fresh rat neostriatal tissue.
FIG. 19: Determination of IC50 Values for Inhibition of Dopamine Re-Uptake.
An in vitro nerve-terminal preparation (synaptosome preparation) was obtained form fresh rat neostriatal brain tissue. Transport by dopamine nerve-terminals was estimated by measuring the uptake of tritiated dopamine.

[3] = test system: cultured rat mesencephalic cells exposed to NMDA; experiment: NMDA model of cell death: TH immunochemistry; details: 50 μM, 100 μM NMDA exposure
Method: Rat mesencephalic cell cultures were exposed to 100 μM NMDA and incubated as described above in connection with FIG. 16.

[4] = test system: cultured embryonic mesencephalic cells; experiment: Neuronal survival: [3H]dopamine uptake by cultured mesencephalic cells; assay type: cell-based, rat
Description: The amount of uptake by the cultured brain cells corresponds to axonal growth.

[5] = test system: TH positive cells in cultured E-14 embryonic mesencephalic cells
interleukin-2 production = experiment: Concanavalin A-induced interleukin-2 production by spleen cells of treated old rats; assay type: in vivo, rat; details: ip daily 60 days
Method: The present experiments utilized a rat model to examine the ability of R(−)DMS and S(+)DMS to restore immunological function. Rats were divided into the following experimental groups:
(§1) Rats were administered saline or test agent ip, daily for 60 days. They were then maintained for an additional “wash out” period of 10 days during which time no treatment was given. At the end of this time, animals were sacrificed and their spleens were removed. The spleen cells were then assayed for a variety of factors which are indicative of immune system function. Specifically, standard tests were employed to determine the following:
2) in vitro concanavalin A-induced production of interleukin-2;

MAO-A [6] = target: T2, MAO-A (Rattus norvegicus, UniProt P21396)
T2 sequence (P21396 1-526): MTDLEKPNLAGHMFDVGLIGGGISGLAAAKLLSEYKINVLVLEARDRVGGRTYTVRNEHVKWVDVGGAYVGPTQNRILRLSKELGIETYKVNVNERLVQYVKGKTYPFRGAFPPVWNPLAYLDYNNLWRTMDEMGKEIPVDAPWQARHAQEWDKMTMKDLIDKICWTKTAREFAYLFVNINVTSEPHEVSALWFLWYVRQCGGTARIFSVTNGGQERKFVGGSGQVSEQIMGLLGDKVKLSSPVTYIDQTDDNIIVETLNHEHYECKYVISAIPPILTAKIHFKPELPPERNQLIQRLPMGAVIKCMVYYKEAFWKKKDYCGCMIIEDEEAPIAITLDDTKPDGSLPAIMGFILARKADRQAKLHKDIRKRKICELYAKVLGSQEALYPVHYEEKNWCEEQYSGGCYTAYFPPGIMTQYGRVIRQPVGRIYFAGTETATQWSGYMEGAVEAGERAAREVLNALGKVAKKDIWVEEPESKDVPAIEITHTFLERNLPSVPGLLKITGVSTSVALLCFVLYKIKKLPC

γ-interferon production = γ-interferon production by concanavalin A-stimulated spleen cells of treated old rats; assay type: in vivo, rat; details: old rats, ip daily 60 days; 1.0 mg/kg (for DMS enantiomers)
Method: Rats were divided into the following experimental groups:
as §1
1) in vitro production of γ-interferon by concanavalin A-stimulated spleen cells;

[7] = test system: cultured rat mesencephalic cells; experiment: Medium change (glutamate receptor dependent) model of cell death: TH positive cells
Method: as §2

MAO-A [8] = target: T3, MAO-A (Cavia porcellus, UniProt H0UVA2); experiment: MAO-A inhibition in guinea pig hippocampal homogenates in vitro; assay type: biochemical; parameters: by human platelets and/or guinea pig hippocampal homogenates; from tissue; host or cells: guinea pig hippocampus homogenate
T3 sequence (H0UVA2 1-461): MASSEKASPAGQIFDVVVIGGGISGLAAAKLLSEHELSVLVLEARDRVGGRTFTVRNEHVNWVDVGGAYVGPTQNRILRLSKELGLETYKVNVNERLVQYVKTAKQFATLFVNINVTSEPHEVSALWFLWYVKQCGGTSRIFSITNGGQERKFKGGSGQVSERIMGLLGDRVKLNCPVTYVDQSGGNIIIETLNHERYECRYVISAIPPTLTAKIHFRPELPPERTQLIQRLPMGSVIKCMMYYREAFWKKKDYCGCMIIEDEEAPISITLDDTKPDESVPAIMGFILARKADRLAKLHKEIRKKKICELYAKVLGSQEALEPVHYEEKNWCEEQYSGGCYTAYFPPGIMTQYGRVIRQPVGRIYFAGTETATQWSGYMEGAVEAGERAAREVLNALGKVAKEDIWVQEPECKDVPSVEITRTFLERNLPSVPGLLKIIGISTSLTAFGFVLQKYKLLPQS
Description: Human platelet MAO is comprised exclusively of the type-B isoform of the enzyme. […] The present study also examined the two enantiomers of DMS for inhibitory activity with respect to the MAO-A and MAO-B in guinea pig hippocampal tissue. Guinea pig brain tissue is an excellent animal model for studying brain dopamine metabolism, the enzyme kinetics of the multiple forms of MAO and the inhibitory properties of novel agents that interact with these enzymes. The multiple forms of MAO in this animal species show similar kinetic properties to those found in human brain tissue. Finally, the test agents were administered to guinea pigs and the extent to which they might act as inhibitors of brain MAO in vivo was assessed.
In vitro: The test system utilized the in vitro conversion of specific substrates of MAO-A (^14C-serotonin) and MAO-B (^14C-phenylethylamine) by human platelets and/or guinea pig hippocampal homogenates. […] A percent inhibition was calculated from these values.

[9] = test system: cultured rat mesencephalic cells exposed to NMDA; experiment: NMDA model of cell death: [3H]-dopamine uptake; details: 50 μM, 100 μM NMDA exposure
[10] = 50 μM, medium change model, listed as Deprenyl
[11] = 1.0 mg/kg (for DMS enantiomers)

T1 sequence (P23977 whole entry): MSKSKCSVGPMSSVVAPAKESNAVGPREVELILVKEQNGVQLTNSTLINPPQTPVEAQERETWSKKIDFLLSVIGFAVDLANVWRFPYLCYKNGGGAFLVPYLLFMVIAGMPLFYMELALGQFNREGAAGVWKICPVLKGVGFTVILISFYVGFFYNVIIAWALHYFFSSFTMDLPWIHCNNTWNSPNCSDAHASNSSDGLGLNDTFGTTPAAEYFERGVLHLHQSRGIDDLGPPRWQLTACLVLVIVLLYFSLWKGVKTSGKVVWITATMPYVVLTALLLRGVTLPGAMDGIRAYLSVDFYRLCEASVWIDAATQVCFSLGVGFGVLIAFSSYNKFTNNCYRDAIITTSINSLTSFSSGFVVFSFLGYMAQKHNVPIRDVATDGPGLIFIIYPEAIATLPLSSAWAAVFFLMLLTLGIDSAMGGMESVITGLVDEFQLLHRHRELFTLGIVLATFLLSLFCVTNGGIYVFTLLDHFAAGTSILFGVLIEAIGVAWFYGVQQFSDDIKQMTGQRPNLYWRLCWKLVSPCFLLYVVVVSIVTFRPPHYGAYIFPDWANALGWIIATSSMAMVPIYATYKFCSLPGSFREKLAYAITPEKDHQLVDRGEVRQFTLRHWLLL

## C#CCN(C)CCCOc1ccc(Cl)cc1Cl [clorgyline, reference compound]
[1]; 50 μM
  neuron protection by measurement of dopamine uptake (FIG. 15): protected

## C[C@]12N[C@H](Cc3ccccc31)c1ccccc12 [MK-801, reference compound]
[1]; 10 μM
  neuron protection by measurement of dopamine uptake (FIG. 15): protection was also obtained

## NCCc1ccc(O)c(O)c1 [Dopamine, dopamine, reference compound]
[2]; 1 μM
  3H-Dopamine uptake, % Reduction x ± SEM: 52.0 ± 4.9%
[2]; 10 μM
  3H-Dopamine uptake, % Reduction x ± SEM: 80.9 ± 0.4%

## C#CCN(C)Cc1ccccc1 [Pargyline, pargyline, reference compound]
[1]; at the concentrations used (0.5, 5 and 50 μM)
  neuron protection by measurement of dopamine uptake (FIG. 15): did not appear to offer any protection

## C#CCN(C)[C@H](C)Cc1ccccc1 [Selegiline, R-(−)-N-methyl-N-(prop-2-ynyl)-2-aminophenylpropane, reference compound]
[3]
  TH Immunochemistry, % control, Mean: 234.3%
  TH Immunochemistry, cells/cm^2, Mean: 220.63 cells/cm^2
[3]; listed as Deprenyl
  TH Immunochemistry, % control, individual cultures: 244.2% and 305.3% and 199.1% and 188.5%
  TH Immunochemistry, cells/cm^2, individual cultures: 230.0 cells/cm^2 and 287.5 cells/cm^2 and 187.5 cells/cm^2 and 177.5 cells/cm^2
[1]; 50 μM
  neuron protection by measurement of dopamine uptake (FIG. 15): neuron protection
[1]; 50 μM, medium change model
  Dopamine uptake, % control, Mean: 170.1%
  Dopamine uptake, counts/min, Mean: 35714 counts/min
[1]; [10]
  Dopamine uptake, % control, individual cultures: 181.2% and 162.6% and 175.3% and 161.3%
  Dopamine uptake, counts/min, individual cultures: 38053 counts/min and 34130 counts/min and 36810 counts/min and 33863 counts/min
[4]; 0.5 μM
  3H-Dopamine Uptake, % Cont: 120.6%
  3H-Dopamine Uptake, Mean: 14452 ± 212
[4]; 5 μM
  3H-Dopamine Uptake, % Cont: 137.5%
  3H-Dopamine Uptake, Mean: 16468 ± 576
[4]; 50 μM
  3H-Dopamine Uptake, % Cont: 275.5%
  3H-Dopamine Uptake, Mean: 33018 ± 1317
[5]; 0.5 μM
  Survival of TH positive cells, % cont.: 185.81%
  Survival of TH positive cells, Mean cells/cm^2: 201.70 ± 25.01 cells/cm^2
[5]; 5 μM
  Survival of TH positive cells, % cont.: 218.33%
  Survival of TH positive cells, Mean cells/cm^2: 237.00 ± 12.59 cells/cm^2
[5]; 50 μM
  Survival of TH positive cells, % cont.: 269.25%
  Survival of TH positive cells, Mean cells/cm^2: 292.28 ± 17.41 cells/cm^2
interleukin-2 production; [11]
  IL-2 % control: 376%
  IL-2 U/ml mean: 73.78 U/ml
interleukin-2 production; […] (for R(−)DMS by group order)
  IL-2 U/ml mean: 109.6 U/ml
MAO-A [6]; 0.3 µM
  inhibition: 9.75%
MAO-A [6]; 1 μM
  inhibition: 32.5%
MAO-A [6]; 3 µM
  inhibition: 65.5%
MAO-A [6]; 10 μM
  inhibition: 97.8%
γ-interferon production
  IFN-γ % control: 550%
  IFN-γ U/ml mean: 1934 U/ml
[7]; 50 μM, medium change model
  TH Immunochemistry, % control, Mean: 130.6%
  TH Immunochemistry, cells/cm^2, Mean: 344.17 cells/cm^2
[7]; [10]
  TH Immunochemistry, % control, individual cultures: 146.0% and 124.2% and 121.4%
  TH Immunochemistry, cells/cm^2, individual cultures: 385.0 cells/cm^2 and 327.5 cells/cm^2 and 320.0 cells/cm^2
[7]; 0.5, 5.0 or 50 μM, 4 days of daily medium changes, TH staining and dopamine uptake
  survival of dopaminergic neurons (FIGS. 11 and 12): promotes the survival of dopaminergic neurons
[2]; 1 μM
  3H-Dopamine uptake, % Reduction x ± SEM: 13.9 ± 4.7%
[2]; 10 μM
  3H-Dopamine uptake, % Reduction x ± SEM: 16.3 ± 3.8%
[2]; 100 μM
  3H-Dopamine uptake, % Reduction x ± SEM: 7.0 ± 3.6%
[2]; 100 μM (last row of each agent)
  3H-Dopamine uptake, % Reduction x ± SEM: 59.8 ± 1.0%
MAO-A [8]
  IC50: 2500 nM
MAO-A [8]; 300 nM, guinea pig hippocampus, read-out: MAO-A % Inhibition x = SEM
  inhibition at 0.3 µM: 11.9 ± 2.4%
MAO-A [8]; 1 μM, guinea pig hippocampus, read-out: MAO-A % Inhibition x = SEM
  inhibition at 1 µM: 22.1 ± 1.2%
MAO-A [8]; 3 μM, guinea pig hippocampus, read-out: MAO-A % Inhibition x = SEM
  inhibition at 3 µM: 53.5 ± 2.7%
MAO-A [8]; MAO-A IC50, guinea pig hippocampal cortex
  reduction in potency compared to selegiline (value in parentheses): 1
[9]
  Dopamine uptake, % control, Mean: 257.4%
  Dopamine uptake, counts/min, Mean: 17393.8 counts/min
[9]; listed as Deprenyl
  Dopamine uptake, % control, individual cultures: 228.1% and 273.5% and 251.0% and 259.8% and 274.9%
  Dopamine uptake, counts/min, individual cultures: 15410 counts/min and 18479 counts/min and 16958 counts/min and 17550 counts/min and 18572 counts/min
